Data on 28 compounds can be found in ChEMBL document CHEMBL4038294, “Divergent synthesis of kinase inhibitor derivatives, leading to discovery of selective Gck inhibitors” (Bioorg Med Chem Lett, 2017).

Experiment [1] concerns the target Tyrosine-protein kinase SYK (Homo sapiens) (UniProt P43405). Put plainly: Inhibition of human wild type partial length SYK (D354 to N635 residues) expressed in bacterial expression system at 1 uM by KINOMEScan assay relative to control.
For experiment [2], the target named is T1, Mitogen-activated protein kinase kinase kinase kinase 2 (Homo sapiens) (UniProt Q12851).
T1 sequence (whole entry): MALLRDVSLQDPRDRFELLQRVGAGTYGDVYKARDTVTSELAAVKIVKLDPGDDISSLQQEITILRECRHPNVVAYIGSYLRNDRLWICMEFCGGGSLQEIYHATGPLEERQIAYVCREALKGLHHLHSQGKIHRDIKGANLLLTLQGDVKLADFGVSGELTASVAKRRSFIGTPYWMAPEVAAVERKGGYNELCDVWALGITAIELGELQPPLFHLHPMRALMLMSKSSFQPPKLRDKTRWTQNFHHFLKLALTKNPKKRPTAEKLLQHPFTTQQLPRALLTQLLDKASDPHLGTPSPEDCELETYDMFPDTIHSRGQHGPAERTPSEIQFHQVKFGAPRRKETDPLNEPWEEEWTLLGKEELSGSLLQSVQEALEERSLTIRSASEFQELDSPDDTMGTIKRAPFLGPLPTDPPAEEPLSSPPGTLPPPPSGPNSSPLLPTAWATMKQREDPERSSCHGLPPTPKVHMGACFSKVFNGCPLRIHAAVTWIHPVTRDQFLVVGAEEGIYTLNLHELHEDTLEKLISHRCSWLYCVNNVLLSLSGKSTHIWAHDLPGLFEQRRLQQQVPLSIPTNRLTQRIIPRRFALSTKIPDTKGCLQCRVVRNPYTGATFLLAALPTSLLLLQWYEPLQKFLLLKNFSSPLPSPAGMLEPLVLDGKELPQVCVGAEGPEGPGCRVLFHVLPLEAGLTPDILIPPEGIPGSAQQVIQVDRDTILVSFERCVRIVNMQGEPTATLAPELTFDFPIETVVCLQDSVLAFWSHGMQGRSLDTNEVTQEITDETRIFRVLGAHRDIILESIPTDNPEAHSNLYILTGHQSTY
Description: Inhibition of human wild type GCK (M1 to G318 residues) expressed in mammalian expression system at 1 uM by KINOMEScan assay relative to control.

For experiment [3], the target named is T2, Mitogen-activated protein kinase kinase kinase kinase 2 (Homo sapiens, UniProt Q12851).
T2 sequence (Q12851 whole entry): T1 sequence (whole entry)
Put plainly: Binding affinity to human wild type GCK (M1 to G318 residues) expressed in mammalian expression system by KINOMEScan assay.

pKd: −log10 of the molar value.

In the case of `CNC(=O)c1cccnc1Nc1nc(-c2ccc3c(c2)OCO3)cc2nccn12`, the inhibition (usually the drop in the measured response relative to a control, in per cent) in experiment [1] is 9%; in experiment [2] it was 1%.

In the case of `CNC(=O)c1cccnc1Nc1nc(-c2ccc(OC)cc2)cc2nccn12`, the figures for the inhibition in experiment [1] and in experiment [2] were 0% and 1%, respectively.

As to `Cc1ccc(-c2cc3nccn3c(Nc3ncccc3C(N)=O)n2)cc1`, the inhibition in experiment [1] was determined as 58%; in experiment [2] it was 99.2%.

As to `CNC(=O)c1cccnc1Nc1cc(-c2ccccc2)cc2[nH]ccc12`, the results for the inhibition in experiment [1] and in experiment [2] were 1% and 29%, respectively.

Take `CCC(C)NC(=O)c1cccnc1Nc1nc(-c2ccccc2)cc2nccn12` (stereo not given): the inhibition was found to be 1% in experiment [1] and 29% in experiment [2].

As for `COc1ccccc1-c1cc2nccn2c(Nc2ncccc2C(N)=O)n1`, the inhibition in experiment [1] was 61%; in experiment [2], 100%.

Take `CCCCOc1ccc(-c2cc3nccn3c(Nc3ncccc3C(N)=O)n2)cc1`: the inhibition in experiment [1] worked out at 4%; in experiment [2], 47%.

As for `NC(=O)c1cccnc1Nc1nc(-c2ccccc2)cc2nccn12`, the inhibition in experiment [1] was found to be 73%; in experiment [2], 99.5%.

With `CNC(=O)c1cccnc1Nc1nc(-c2ccccc2)cc2nccn12`, the inhibition was found to be 30% in experiment [1] and 24% in experiment [2].

With `CCCOc1ccc(-c2cc3nccn3c(Nc3ncccc3C(N)=O)n2)cc1`, the inhibition was found to be 51% in experiment [1] and 86% in experiment [2].

Consider `NC(=O)c1cccnc1Nc1nc(-c2ccc3c(c2)OCO3)cc2nccn12`, for which the results for the inhibition in experiment [1] and in experiment [2] were 24% and 94.3%, respectively. The pKd – broadly, the Kd on a negative log10 scale, so that one unit is a factor of ten – in experiment [3] was 7.31.

In the case of `O=C(NCc1ccccc1)c1cccnc1Nc1nc(-c2ccccc2)cc2nccn12`, the values for the inhibition in experiment [1] and in experiment [2] were 0% and 2%, respectively.

Turning to `COc1ccc(-c2cc3nccn3c(Nc3ncccc3C(N)=O)n2)c(OC)c1`, the inhibition in experiment [1] came to 80%; in experiment [2], 100%.

In the case of `CCNC(=O)c1cccnc1Nc1nc(-c2ccccc2)cc2nccn12`, the results for the inhibition in experiment [1] and in experiment [2] were 19% and 20%, respectively.

`Cc1cccc(-c2cc3nccn3c(Nc3ncccc3C(N)=O)n2)c1`: the results for the inhibition in experiment [1] and in experiment [2] were 74% and 100%, respectively.

For `CNC(=O)c1cccnc1Nc1nc(-c2cccc(OC)c2)cc2nccn12`, the inhibition in experiment [1] amounted to 1%; in experiment [2], 0%.

Consider `COc1ccc(-c2cc3nccn3c(Nc3ncccc3C(N)=O)n2)cc1OC`, for which the results for the inhibition in experiment [1] and in experiment [2] were 85% and 100%, respectively.

Take `CNC(=O)c1cccnc1Nc1cc(-c2ccc(OC)cc2)cc2[nH]ccc12`: the inhibition in experiment [1] stood at 0%; in experiment [2] it was 2%.

Turning to `COc1ccc(-c2cccc(-c3cc4nccn4c(Nc4ncccc4C(N)=O)n3)c2)cc1`, the inhibition was determined as 5% in experiment [1] and 84% in experiment [2]. The pKd in experiment [3] is 6.66.

With `CCCCNC(=O)c1cccnc1Nc1nc(-c2ccccc2)cc2nccn12`, the inhibition in experiment [1] and in experiment [2] was 8% each time.

In the case of `Cc1ccccc1-c1cc2nccn2c(Nc2ncccc2C(N)=O)n1`, the inhibition in experiment [1] is 11%; in experiment [2], 94.7%. The compound also showed a pKd in experiment [3] of 7.00.

In the case of `CN(C)C(=O)c1cccnc1Nc1nc(-c2ccccc2)cc2nccn12`, the inhibition in experiment [1] was 10%; in experiment [2], 58%.

As for `CC(C)NC(=O)c1cccnc1Nc1nc(-c2ccccc2)cc2nccn12`, the inhibition in experiment [1] and in experiment [2] was 0% each time.

As for `COc1cc(OC)cc(-c2cc3nccn3c(Nc3ncccc3C(N)=O)n2)c1`, the results for the inhibition in experiment [1] and in experiment [2] were 80% and 100%, respectively.

`CCCNC(=O)c1cccnc1Nc1nc(-c2ccccc2)cc2nccn12`: the inhibition amounted to 5% in experiment [1] and 16% in experiment [2].

Take `COc1cccc(-c2cc3nccn3c(Nc3ncccc3C(N)=O)n2)c1`: the inhibition in experiment [1] is 37%; in experiment [2], 97.2%. This compound also showed a pKd in experiment [3] of 7.23.

In the case of `CNC(=O)c1cccnc1Nc1nc(-c2ccc(OC)c(OC)c2)cc2nccn12`, the inhibition in experiment [1] and in experiment [2] was 0% in each case.

`COc1ccc(-c2cc3nccn3c(Nc3ncccc3C(N)=O)n2)cc1`: the inhibition in experiment [1] worked out at 59%; in experiment [2], 99.1%.
